For assay [1], the target named is human TYK2 (JH2domain-pseudokinase) (Homo sapiens (Human), UniProt P29597). Put plainly: TYK2 JH2 Domain Binding Assay (KINOMEscan). An outline of the steps:
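Kds, run in duplicate, came from Hill fits (slope fixed at −1) of an 11-point 3-fold dilution series starting at 30,000 nM. Bead-retained TYK2 JH2 (aa G556–D888)–NFkB DBD fusion, DNA-tagged and expressed in HEK293 cells, was read by qPCR after 1 h room-temperature binding in 0.9% DMSO.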

For the next assay, the target named is Tyk2 kinase domain (DH1) (Homo sapiens (Human), UniProt P29597). Nature of the assay: Tyk2 Radioactive Kinase Assay. Type of assay: biochemical. Particulars: for inhibition at 10 µM: read-out: Tyk2 JH1% Inhibition @ 10 μM. As to the method: The Tyk2 and JAK2 radioactive kinase assay measures the percent inhibition at the Tyk2 kinase domain (DH1) and the percent inhibition at the JAK2 kinase domain (JH1). Results of the assay are expressed as percent inhibition at 10 μM.

The target of a further assay is JAK2 kinase domain (JH1) (Homo sapiens (Human), UniProt O60674). Nature of the assay: JAK2 Radioactive Kinase Assay. Type of assay: biochemical. Particulars: for inhibition at 10 µM: read-out: JAK2 JH1% Inhibition @ 10 μM. The gist of the method: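 Each kinase domain is incubated with test compound at 10 μM. Activity is then measured radiometrically and expressed as percent inhibition relative to uninhibited enzyme.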

The structures appear in SMILES notation. Read-outs that look alike come from different tables or passages of the source.

Chain of Tyk2 kinase domain (DH1) (P29597 897-1176): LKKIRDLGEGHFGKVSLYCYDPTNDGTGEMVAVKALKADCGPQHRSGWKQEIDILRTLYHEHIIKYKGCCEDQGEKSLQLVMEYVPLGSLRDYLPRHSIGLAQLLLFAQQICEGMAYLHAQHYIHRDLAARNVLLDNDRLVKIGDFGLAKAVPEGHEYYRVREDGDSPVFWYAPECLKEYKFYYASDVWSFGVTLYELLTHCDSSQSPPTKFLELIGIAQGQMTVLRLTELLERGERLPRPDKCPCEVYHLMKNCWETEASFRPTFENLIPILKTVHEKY
Chain of human TYK2 (JH2domain-pseudokinase) (P29597 556-888): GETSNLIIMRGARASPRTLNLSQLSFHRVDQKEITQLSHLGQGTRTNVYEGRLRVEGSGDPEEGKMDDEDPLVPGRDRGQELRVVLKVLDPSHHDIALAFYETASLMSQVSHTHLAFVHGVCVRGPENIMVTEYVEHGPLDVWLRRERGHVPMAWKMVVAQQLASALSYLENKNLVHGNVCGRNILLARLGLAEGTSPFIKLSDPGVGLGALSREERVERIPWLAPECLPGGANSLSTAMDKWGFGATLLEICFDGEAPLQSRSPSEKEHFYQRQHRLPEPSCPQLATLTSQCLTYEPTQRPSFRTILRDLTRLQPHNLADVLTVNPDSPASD
Chain of JAK2 kinase domain (JH1) (O60674 849-1124): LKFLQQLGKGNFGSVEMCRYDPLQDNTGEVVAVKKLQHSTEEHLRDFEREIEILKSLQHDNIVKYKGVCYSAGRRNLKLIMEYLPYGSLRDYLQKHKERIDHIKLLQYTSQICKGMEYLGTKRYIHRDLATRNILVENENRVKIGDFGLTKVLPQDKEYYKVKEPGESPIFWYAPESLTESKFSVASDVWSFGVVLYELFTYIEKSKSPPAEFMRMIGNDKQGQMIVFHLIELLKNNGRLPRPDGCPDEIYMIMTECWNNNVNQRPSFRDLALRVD

Take `CNc1cc(Nc2cccnc2OC(CO)CO)nc2c(C(=O)NC3CC3)cnn12` [I-199]: the equilibrium dissociation constant (Kd) in assay [1] lay in the range of 0.2 to 1 nM. Also, the inhibition at 10 µM on Tyk2 kinase domain (DH1) (compound at 10 μM, ATP 10 μM) is less than 50%; at JAK2 kinase domain (JH1) (compound at 10 μM, ATP 10 μM), less than 50%.
`CNc1cc(Nc2cccn([C@@H]3CCC[C@@H]3OC)c2=O)nc2c(C(=O)N[C@@H]3C[C@@H]3F)cnn12` [I-507] showed a dissociation constant (Kd) in assay [1] of 0.2 to 1 nM. Moreover, the inhibition at 10 µM was less than 50% at Tyk2 kinase domain (DH1) (compound at 10 μM, ATP 10 μM) and less than 50% on JAK2 kinase domain (JH1) (compound at 10 μM, ATP 10 μM).
Turning to `Cc1cc(Nc2cc(N)n3ncc(C(N)=O)c3n2)cc(N2CCCC(O)C2)n1` (stereo in doubt) [I-62, (S)-7-amino-5-((2-(3-hydroxypiperidin-1-yl)-6-methylpyridin-4-yl)amino)pyrazolo[1,5-a]pyrimidine-3-carboxamide], the Kd in assay [1] was greater than 10 nM. The inhibition at 10 µM was less than 50% on Tyk2 kinase domain (DH1) (compound at 10 μM, ATP 10 μM) and less than 50% at JAK2 kinase domain (JH1) (compound at 10 μM, ATP 10 μM).
`CO[C@H]1C[C@H](Oc2ncc(Cl)cc2Nc2cc(N)n3ncc(C(N)=O)c3n2)C1` [I-119] returned a dissociation constant (Kd) in assay [1] of 1 to 10 nM. In addition, the inhibition at 10 µM at Tyk2 kinase domain (DH1) (compound at 10 μM, ATP 10 μM) is less than 50%; at JAK2 kinase domain (JH1) (compound at 10 μM, ATP 10 μM) it was less than 50%.
In turn, `CNc1cc(Nc2cc(Cl)cn(-c3cn(C4CC4)nc3C)c2=O)nc2c(C(=O)NC3CCC3)cnn12` [I-179] displayed a Kd in assay [1] of 0.2 to 1 nM. The inhibition at 10 µM at Tyk2 kinase domain (DH1) (compound at 10 μM, ATP 10 μM) was less than 50%; on JAK2 kinase domain (JH1) (compound at 10 μM, ATP 10 μM), less than 50%.
In turn, `Nc1cc(Nc2cccc(N3CCCC3=O)n2)nc2c(C(=O)NC3COC3)cnn12` [I-101, 7-amino-N-(oxetan-3-yl)-5-((6-(2-oxopyrrolidin-1-yl)pyridin-2-yl)amino)pyrazolo[1,5-a]pyrimidine-3-carboxamide] gave a Kd in assay [1] greater than 10 nM. The inhibition at 10 µM at Tyk2 kinase domain (DH1) (compound at 10 μM, ATP 10 μM) was less than 50%; at JAK2 kinase domain (JH1) (compound at 10 μM, ATP 10 μM) it was less than 50%.
`CNc1cc(Nc2cccn(-c3cnc(C(C)(C)O)cn3)c2=O)nc2c(C(N)=O)cnn12` [I-63] gave an equilibrium dissociation constant (Kd) in assay [1] of less than 0.2 nM. The inhibition at 10 µM on Tyk2 kinase domain (DH1) (compound at 10 μM, ATP 10 μM) was less than 50%; at JAK2 kinase domain (JH1) (compound at 10 μM, ATP 10 μM) it was less than 50%.
`CNc1cc(Nc2cccnc2OC)nc2c(C(=O)NC[C@@H](C)CO)cnn12` [I-484] gave a Kd in assay [1] of less than 0.2 nM. Moreover, the inhibition at 10 µM was less than 50% on Tyk2 kinase domain (DH1) (compound at 10 μM, ATP 10 μM) and less than 50% on JAK2 kinase domain (JH1) (compound at 10 μM, ATP 10 μM).
As for `CCCCn1cc(-c2cc(NC)n3ncc(C(=O)N[C@@H]4C[C@@H]4F)c3n2)c2cccnc21` [I-478, 5-(1-butyl-1H-pyrrolo[2,3-b]pyridine-3-yl)-N-((1R,2S)-2-fluorocyclopropyl)-7-(methylamino)pyrazolo[1,5-a]pyrimidine-3-carboxamide], in assay [1], the Kd fell in the range of 0.2 to 1 nM. Besides, the inhibition at 10 µM on Tyk2 kinase domain (DH1) (compound at 10 μM, ATP 10 μM) is less than 50%; at JAK2 kinase domain (JH1) (compound at 10 μM, ATP 10 μM) it was less than 50%.
As for `CNc1cc(Nc2ccc3c(n2)OCCO3)nc2c(C(=O)N[C@H]3C[C@H]3F)cnn12` [I-532], the Kd in assay [1] lay in the range of 0.2 to 1 nM. The inhibition at 10 µM at Tyk2 kinase domain (DH1) (compound at 10 μM, ATP 10 μM) is less than 50%; on JAK2 kinase domain (JH1) (compound at 10 μM, ATP 10 μM) it was less than 50%.
`Cc1cc(Nc2cc(N)n3ncc(C(N)=O)c3n2)c(=O)n(-c2ccn(C)n2)c1` [I-34]: in assay [1], the dissociation constant (Kd) was in the range of 0.2 to 1 nM. The inhibition at 10 µM is less than 50% on Tyk2 kinase domain (DH1) (compound at 10 μM, ATP 10 μM) and less than 50% on JAK2 kinase domain (JH1) (compound at 10 μM, ATP 10 μM).
In turn, `CNc1cc(Nc2cccc([C@H]3CCCCO3)n2)nc2c(C(=O)N[C@@H]3CC[C@@H]3O)cnn12` [I-648] yielded an equilibrium dissociation constant (Kd) in assay [1] of 0.2 to 1 nM. Further, the “Tyk2 JH1% Inhibition @ 10 μM” value on Tyk2 kinase domain (DH1) (compound at 10 μM, ATP 10 μM) is listed as “A (percent inhibition at 10 μM lower than 50)”. Moreover, the “JAK2 JH1% Inhibition @ 10 μM” value at JAK2 kinase domain (JH1) (compound at 10 μM, ATP 10 μM) was “A (percent inhibition at 10 μM lower than 50)”.
In assay [1], `CNc1cc(Nc2cccn([C@@H]3CCCOC3)c2=O)nc2c(C(=O)N[C@@H]3CC[C@@H](O)C3)cnn12` [I-739] gave a Kd of 0.2 to 1 nM. Further, the inhibition at 10 µM at Tyk2 kinase domain (DH1) (compound at 10 μM, ATP 10 μM) is less than 50%; on JAK2 kinase domain (JH1) (compound at 10 μM, ATP 10 μM), less than 50%.
In assay [1], `CNc1cc(Nc2cccn(C3CCCCC3)c2=O)nc2c(C(=O)N[C@H]3CC[C@H]3O)cnn12` [I-942] yielded a dissociation constant (Kd) of less than 0.2 nM. The inhibition at 10 µM is less than 50% at Tyk2 kinase domain (DH1) (10 μM compound, 10 μM ATP) and less than 50% at JAK2 kinase domain (JH1) (10 μM compound, 10 μM ATP).
On to `CNc1cc(Nc2cccn(-c3ccnn3C)c2=O)nc2c(C(=O)NC3CCC3)cnn12` [I-328], for which, in assay [1], the dissociation constant (Kd) is less than 0.2 nM. The inhibition at 10 µM at Tyk2 kinase domain (DH1) (compound at 10 μM, ATP 10 μM) was less than 50%; at JAK2 kinase domain (JH1) (compound at 10 μM, ATP 10 μM) it was less than 50%.
As for `CNc1cc(Nc2ccnn(-c3ccc(F)cc3)c2=O)nc2c(C(=O)N[C@H]3C[C@H]3F)cnn12` [I-134], in assay [1], the Kd lay within 0.2 to 1 nM. Also, the inhibition at 10 µM on Tyk2 kinase domain (DH1) (compound at 10 μM, ATP 10 μM) was less than 50%; on JAK2 kinase domain (JH1) (compound at 10 μM, ATP 10 μM), less than 50%.
Regarding `CNc1cc(Nc2cc(F)cn([C@@H]3CCCOC3)c2=O)nc2c(C(=O)N[C@H]3C[C@H]3F)cnn12` [I-558], the dissociation constant Kd in assay [1] was less than 0.2 nM. For the same compound, the inhibition at 10 µM on Tyk2 kinase domain (DH1) (compound at 10 μM, ATP 10 μM) was less than 50%; on JAK2 kinase domain (JH1) (compound at 10 μM, ATP 10 μM), less than 50%.

The values are drawn from patent US10508120B2, “TYK2 inhibitors and uses thereof” (Nimbus Lakshmi, Inc., priority 2017, dated 2019).
